Like-named read-outs stand apart in the source and are kept apart here.
What was measured:
Raw264.7 cells [1] = experiment: Cell number (CellNb) from image analysis of the phenotypic cell-based assay; conditions: for Primary QIM CellNb: primary screen, 20 μM
Raw264.7 cells [2] = conditions: mouse, 5 days; for Primary QIM CellNb: 20 μM
[3] = system: M. tuberculosis H37Rv-GFP; experiment: microbe, parasite or virus in culture; assay type: cell-based, Mycobacterium tuberculosis; conditions: Mycobacterium tuberculosis, H37RV, Macrophage
[4] = confirmation, 20 uM, read-out: QIM Confirm % Inhibition 20 uM
[5] = primary screen, 20 μM, read-out: Primary QIM % Inhibition

| SMILES | QIM Confirm CellNb 2 uM (Raw264.7 cells [1]; confirmation) | Primary QIM CellNb (Raw264.7 cells [1]) | QIM Confirm CellNb 2 uM (Raw264.7 cells [2]) | Primary QIM CellNb (Raw264.7 cells [2]) | inhibition at 20 µM [3, 4] [%] | inhibition at 20 µM [3, 5] [%] | QIM Confirm CellNb 0.2 uM (Raw264.7 cells [1]; confirmation, 0.2 uM) |
| --- | --- | --- | --- | --- | --- | --- | --- |
| COc1cccc(C2Nc3ccc(C(=O)O)cc3C3C=CCC32)c1 (stereo not shown) [IPK 000 112 80] | 189.0 | 152.0 | 98.3 | 10.7 | 55.6 | 41.1 | – |
| C/C(=N\NC(=O)c1cccc(F)c1)c1ccc2ccccc2c1 [IPK 000 104 07] | – | 243.5 | – | 65.1 | 80.2 | 82.3 | – |
| NNC(=O)c1ccc(COc2ccc(F)cc2)o1 [IPK 000 124 65] | – | 490.8 | – | 45.0 | 94.3 | 77.1 | 267.0 |
| COc1cc(/C=N/NC(=O)c2ccncc2)cc(Br)c1OC [IPK 000 078 53] | – | 386.0 | – | 95.6 | 107 | 84 | – |
| CN1C/C(=C\c2ccccc2Br)C(=O)/C(=C/c2ccccc2Br)C1 [IPK 000 102 36] | – | 193.3 | – | 4.4 | 66.5 | 65.6 | – |
| CC(Oc1cccc2ccccc12)C(=O)NNC(=O)c1cc2ccccc2oc1=O (stereo not shown) [IPK 000 095 07] | – | 388.3 | – | 8.0 | 75.8 | 70.9 | – |
| CCOC(=O)CSc1nc(N)c(C(=O)Nc2ccc(N(C)C)cc2)s1 [IPK 000 105 70] | – | 315.5 | – | 4.7 | 84.6 | 61.2 | – |
| O=C(N/N=C/c1ccc(Cl)cc1Cl)c1ccncc1 [IPK 000 043 13] | – | 177.8 | – | 101.6 | 104 | 49.2 | – |
| CCOc1nnc(NS(=O)(=O)c2ccc(/N=C/c3ccccc3O)cc2)s1 [IPK 000 080 01] | – | 409.8 | – | 27.4 | 56.6 | 14.3 | – |
| CC/C(Cc1ccccc1)=N\NC(=O)c1ccncc1 [IPK 000 078 86] | – | 462.0 | – | 88.3 | 108 | 96.9 | – |
| O=C(N/N=C/c1cc2c(cc1[N+](=O)[O-])OCO2)c1ccncc1 [IPK 000 058 30] | – | 315.8 | – | 98.3 | 70.8 | 95.5 | – |
| CC(=O)Oc1ccccc1C(=S)Nc1ccccc1 [IPK 000 042 77] | – | 367.0 | – | 7.7 | 48.9 | 105 | – |
| CCCCc1ccc(C(=O)Nc2ccc(Br)cn2)cc1 [IPK 000 105 47] | – | 125.8 | – | 68.1 | 50.7 | 60.1 | – |
| Cc1ccc(NC(=O)c2c(NC(=O)c3ccccc3Cl)sc3c2CCC3)cc1 [IPK 000 073 69] | – | 246.5 | – | 14.0 | 32.3 | 87 | – |
| CCOC(=O)/C=C/C(=O)NNC(=O)c1cccs1 [IPK 000 109 99] | 174.3 | 183.0 | 101.3 | 20.3 | 28.1 | 8.5 | – |
| CC(C)c1ccc(/C=N/NC(=O)c2ccncc2)cc1 [IPK 000 043 32] | – | 164.0 | – | 94.5 | 102 | 60.5 | – |
| CCOC(=O)C1=C(C)NC2=C(C(=O)CC(c3ccccc3)C2)C1c1cccc(O)c1 (stereo not shown) [IPK 000 083 89] | – | 38.8 | – | 19.5 | 59.1 | 73.5 | – |
| Cc1nn(C)cc1/C=N/NC(=O)c1ccncc1 [IPK 000 079 13] | – | 294.0 | – | 97.8 | 102 | 69.6 | – |
| Oc1ccccc1/N=C/c1cc(Cl)cc(Cl)c1O [IPK 000 045 01] | – | 145.0 | – | 24.3 | 30.6 | -9.3 | – |
| CN(C)c1ccc(/C=N/NC(=O)c2ccncc2)cc1 [IPK 000 042 96] | – | 216.3 | – | 101.1 | 105 | 84.3 | – |
| NNC(=O)c1ccc(COc2ccccc2Br)o1 [IPK 000 124 64] | – | 501.5 | – | 54.7 | 78.2 | 79.9 | – |
| O=C(NC1CCCCC1)c1ccc(COc2cc(Cl)ccc2Cl)o1 [IPK 000 123 90] | – | 205.0 | – | 26.7 | 87.7 | 73.1 | – |
| COc1ccc(/C=N/NC(=O)c2ccncc2)c(OC)c1 [IPK 000 043 00] | – | 333.3 | – | 101.4 | 102 | 104 | – |
| CCN1C/C(=C\c2ccc3c(c2)OCO3)C(=O)/C(=C/c2ccc3c(c2)OCO3)C1 [IPK 000 102 52] | – | 179.8 | – | −7.0 | 68.1 | 70.4 | – |
| O=C1CSC(N/N=C/c2cc([N+](=O)[O-])ccc2O)N1 (stereo not shown) [IPK 000 109 00] | – | 87.8 | – | 23.8 | 8.2 | -7.8 | – |
| O=C(N/N=C/c1cc2ccccc2[nH]1)c1ccncc1 [IPK 000 043 12] | – | 195.0 | – | 104.6 | 100 | 69.9 | – |

— patent US8785452B2, “Anti-infective compounds” (priority 2008, dated 2014)
